Measured values reported in patent publication US6703237B2, “Methods and formulations for mediating adeno-associated virus (AAV) attachment and infection and methods for purifying AAV” (priority 1998, dated 2004).

Assays:
rAd-LacZ [1] = details: Svensson and Persson 1984; cited from earlier work
rAd-LacZ [2] = details: 20 mM EDTA; HeLa cells; MOI 2
Protocol: (§1) HeLa cells were infected with recombinant virus (rAd-LacZ [FIG. 11A], rAAV-LacZ [FIG. 11B]) at an MOI of 2 either in the presence or absence of divalent cation chelator EDTA (20 mM) as described in methods. 24 h post Ad infection, and 36 h post AAV infection, cells were fixed and stained for β-galactosidase activity (upper panel). Transduction has been quantitated in the lower panel as the percentage of HeLa cells transduced in the presence or absence of EDTA.
(§2) All infectivity and binding assays were done in suspension in a buffer determined to result in maximum cell viability, HEPES-buffered saline (HBS) containing 1% BSA (HBSB) (Sambrook et al., (1989) Molecular Cloning, A Laboratory Manual, (N. Ford et al., eds.), Cold Spring Harbor Laboratory Press, New York). Adherent cells were first detached with 10 mM EDTA followed by two washes in phosphate buffered saline (PBS) containing […] CaCl2 and 0.5 mM MgCl2 and one wash in HBS. To assess the effect of EDTA on AAV transduction, HeLa cells were incubated with recombinant virus at an MOI of 2 in HBS±20 mM EDTA for 1 hour at 4° C. After washing in HBS±EDTA to remove unbound virus, cells were resuspended in HBS±5 mM EDTA and placed at 37° C. for 30 minutes.

rAAV-LacZ = details: 20 mM EDTA; HeLa cells; MOI 2
Protocol: as §1, §2

O=C(O)CN(CCN(CC(=O)O)CC(=O)O)CC(=O)O [EDTA, ethylenediaminetetraacetate]
inhibition of Ad infection, previous published results (rAd-LacZ [1]): 20-50% | inhibition of recombinant Ad-LacZ transduction (rAd-LacZ [2]): 40% | inhibition of AAV infection (rAAV-LacZ): greater than 90%
